Assay results published in patent US6071903A, “2,3,4,5-tetrahydro-1H-[1,4]-benzodiazepine-3-hydroxyamic acids” (American Cyanamid Company, priority 1999, dated 2000).

Legend:
Format in all cases: biochemical
MMP-13 = MMP-13 (Homo sapiens, UniProt P45452); test: MMP-13 inhibition (Table 1); settings: read-out: IC50 (nM) MMP-13
MMP-9 = MMP-9 (Homo sapiens, UniProt P14780); test: In Vitro Gelatinase Assay (MMP-9); settings: human neutrophil gelatinase B
Protocol: The enzyme activity is measured by the rate of the color increase. The thiopeptide substrate was made up fresh as a 20 mM stock in 100% DMSO and the DTNB was dissolved in 100% DMSO as a 100 mM stock and stored in the dark at room temperature. The substrate and the DTNB were diluted together to 1 mM with substrate buffer (50 mM HEPES, pH 7.5, 5 mM CaCl2) before use. […] The assay buffer, enzyme. […] The increase in OD405 was plotted and the slope of the line was calculated. The slope represents the reaction rate.

MMP-1 = biological target: T1, MMP-1 (Homo sapiens, UniProt P03956); test: In Vitro Collagenase Assay (MMP-1); settings: human recombinant fibroblast collagenase
T1 construct: human recombinant fibroblast collagenase (truncated, mw=18,828)
T1 sequence (P03956 100-269 limits assumed): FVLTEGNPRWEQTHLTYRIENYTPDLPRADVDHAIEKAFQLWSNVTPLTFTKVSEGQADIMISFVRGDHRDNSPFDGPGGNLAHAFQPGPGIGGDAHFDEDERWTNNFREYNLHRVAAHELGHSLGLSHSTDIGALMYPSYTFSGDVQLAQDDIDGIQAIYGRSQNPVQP
Excerpt: In Vitro Collagenase Assay
This assay was based on the cleavage of a peptide substrate ((Dnp-Pro-Cha-Gly-Cys(Me)-His-Ala-Lys(NMa)-NH2), available from Peptide International, Inc.) by collagenase releasing the fluorescent NMa group which was quantitated on the fluorometer as disclosed in Bickett et al., "A High Throughput Fluorogenic Substrate for Interstitial Collagenase (MMP-1) and Gelatinase (MMP-9)", Anal. Biochem., 212:58-64, (1993). Dnp quenches the NMa fluorescence in the intact substrate.
The assay was run in HCBC assay buffer (50 mM HEPES, pH 7.0, 5 mM Ca^+2, 0.02% Brij, 0.5% Cysteine), with human recombinant fibroblast collagenase (truncated, mw=18,828. from Wyeth-Ayerst Research, Radnor, Pa.). The substrate was dissolved in methanol and stored frozen in 1 mM aliquots. Collagenase was stored frozen in buffer in 25 μM aliquots. In conducting the assay, the substrate was dissolved in HCBC buffer to a final concentration of 10 μM and collagenase to a final concentration of 5 nM. The compounds being examined were dissolved in methanol, DMSO, or HCBC. The methanol and DMSO were diluted in HCBC to <1.0%. The compounds were added to a 96 well plate containing enzyme and the reaction was started by the addition of substrate.
(§1) The reaction was read (excitation 340 nm, emission 444 nm) for 10 min. and the increase in fluorescence over time was plotted as a linear line. The slope of the line was calculated representing the reaction rate. The linearity of the reaction rate was confirmed (r^2 >0.85). The mean (x±sem) of the control rate was calculated and compared for statistical significance (p<0.05) with drug-treated rates using Dunnett's multiple comparison test.

TACE = biological target: T2, TACE (Homo sapiens, UniProt P78536); test: Procedure for Measuring TACE Inhibition
T2 construct: purchased Immunex
Protocol: Procedure for Measuring TACE Inhibition
The plates were incubated for 10 minutes at room temperature. The reaction was initiated by addition of a fluorescent peptidyl substrate (final concentration 100 μM) to each well with shaking on a shaker for 5 sec.
as §1, with “420” for “444”, “and this represents” for “representing”, “The linearity of the reaction rate was confirmed (r^2 >0.85).” left out

Sequence of MMP-9 (P14780 94-707): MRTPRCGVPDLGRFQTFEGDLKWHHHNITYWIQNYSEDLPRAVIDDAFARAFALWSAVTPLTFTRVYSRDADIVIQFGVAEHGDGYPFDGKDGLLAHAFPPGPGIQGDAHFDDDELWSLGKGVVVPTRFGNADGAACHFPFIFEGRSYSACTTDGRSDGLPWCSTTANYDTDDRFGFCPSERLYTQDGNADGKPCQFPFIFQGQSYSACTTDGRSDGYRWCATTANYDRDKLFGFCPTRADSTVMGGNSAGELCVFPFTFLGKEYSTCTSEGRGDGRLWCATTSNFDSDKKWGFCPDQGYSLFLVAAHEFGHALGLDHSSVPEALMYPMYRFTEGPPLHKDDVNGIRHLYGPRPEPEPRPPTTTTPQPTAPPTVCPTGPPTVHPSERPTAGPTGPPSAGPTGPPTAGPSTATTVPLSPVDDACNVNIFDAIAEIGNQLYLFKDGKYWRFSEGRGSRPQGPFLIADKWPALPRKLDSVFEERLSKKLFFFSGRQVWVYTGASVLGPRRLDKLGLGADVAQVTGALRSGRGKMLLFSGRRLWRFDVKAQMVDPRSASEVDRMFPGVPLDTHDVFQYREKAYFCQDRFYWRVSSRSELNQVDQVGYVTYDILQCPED
T2 sequence (P78536 215-824): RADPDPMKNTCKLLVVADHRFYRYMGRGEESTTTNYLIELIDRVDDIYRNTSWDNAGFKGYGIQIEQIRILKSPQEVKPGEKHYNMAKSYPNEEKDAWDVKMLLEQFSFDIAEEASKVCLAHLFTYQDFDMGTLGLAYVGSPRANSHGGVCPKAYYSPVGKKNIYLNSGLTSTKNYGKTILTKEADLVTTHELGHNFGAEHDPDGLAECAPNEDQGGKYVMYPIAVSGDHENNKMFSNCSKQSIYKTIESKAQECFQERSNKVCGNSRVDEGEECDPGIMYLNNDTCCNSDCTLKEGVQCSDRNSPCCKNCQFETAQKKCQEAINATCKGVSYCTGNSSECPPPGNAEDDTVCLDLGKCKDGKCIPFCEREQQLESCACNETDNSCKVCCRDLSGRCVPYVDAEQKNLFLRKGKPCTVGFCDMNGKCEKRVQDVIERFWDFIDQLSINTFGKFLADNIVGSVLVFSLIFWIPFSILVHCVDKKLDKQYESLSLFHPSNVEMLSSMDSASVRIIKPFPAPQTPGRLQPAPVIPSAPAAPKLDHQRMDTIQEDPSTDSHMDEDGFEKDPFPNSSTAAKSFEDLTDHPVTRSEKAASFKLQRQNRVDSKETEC

Row | SMILES | IC50 (MMP-13) [nM] | IC50 (MMP-9) [nM] | IC50 (MMP-1) [nM] | IC50 (TACE) [nM]
1 | COc1ccc(S(=O)(=O)N2Cc3ccccc3N(C(=O)COc3ccccc3)CC2C(=O)NO)cc1 (centres unmarked) [Example 58, 4-(4-Methoxybenzenesulfonyl)-1-(phenoxyacetyl)-2,3,4,5-tetrahydro-1H-[1,4]benzodiazepine-3-carboxylic acid, Hydroxamide] | 2.9 | 4.4 | 65.5 | 154
2 | COCC(=O)N1CC(C(=O)NO)N(S(=O)(=O)c2ccc(OC)cc2)Cc2cc(C)ccc21 (centres unmarked) [Example 59, 1-Methoxyacetyl-4-(4-methoxybenzenesulfonyl)-7-methyl-2,3-4,5-tetrahydro-1H-[1,4]benzodiazepine-3-carboxylic acid, hydroxyamine] | 1.8 | 2.6 | 105 | 125 ± 6
3 | COc1ccc(S(=O)(=O)N2Cc3cc(C)ccc3N(C(=O)c3ccccc3)CC2C(=O)NO)cc1 (centres unmarked) [Example 60, 1-Benzoyl-4-(4-methoxybenzenesulfonyl)-7-methyl-2,3,4,5-tetrahydro-1H[1,4]benzodianzepine-3-carboxylic acid, Hydroxyamide] | 1.3 | 1.4 | 22.7 | 143
4 | COc1ccc(S(=O)(=O)N2Cc3ccc(Cl)cc3N(C(=O)c3ccc(OC(F)(F)F)cc3)CC2C(=O)NO)cc1 (centres unmarked) [Example 61, 4-(4-Methoxybenzenesulfonyl)-1-[4-(trifluoromethoxy)benzoyl]-8-chloro-2,3,4,5-tetrahydro-1H-[1,4]benzodiazepine-3-carboxylic acid, Hydroxyamide] | 0.4 | 1.3 | 239 | 1250 ± 69
5 | COc1ccc(S(=O)(=O)N2Cc3cc(C)ccc3N(C(=O)c3ccccc3-n3cccn3)CC2C(=O)NO)cc1 (centres unmarked) [Example 63] | 3.1 | 5.6 | 130 | 446 ± 48
6 | COc1ccc(S(=O)(=O)N2Cc3ccc(Cl)cc3N(C(=O)c3ccccc3N3CCOCC3)CC2C(=O)NO)cc1 (centres unmarked) [Example 64, 4-(4-Methoxybenzenesulfonyl)-1-[2-(4-morpholino)phenylcarbonyl}-8-chloro-2,3,4,5-tetrahydro-1H-[1,4]benzodiazepine-3-carboxylic acid, Hydroxyamide] | 3.4 | 6.1 | 157 | 384
7 | CCOc1ccc(C(=O)N2CC(C(=O)NO)N(S(=O)(=O)c3ccc(OC)cc3)Cc3ccccc32)cc1 (centres unmarked) [Example 65, 1-(4-Ethoxybenzoyl)-4-(4-methoxybenzenesulfonyl)-2,3,4,5-tetrahydro-1H-[1,4]benzodiazepine-3-carboxylic acid, Hydroxyamide] | 1.5 | 1.5 | 23.5 | 157
8 | COc1ccc(S(=O)(=O)N2Cc3ccccc3N(C(=O)c3ccc(-n4ccc(C)n4)cc3Cl)CC2C(=O)NO)cc1 (centres unmarked) [Example 66, 4-(4-Methoxybenzenesulfonyl)-1-[2-chloro-4-(3-methyl-1-pyrazolyl)phenylcarbonyl}-2,3,4,5-tetrahydro-1H-[1,4]benzodiazepine-3-carboxylic acid, Hydroxyamide] | 2.6 | 3.4 | 83.4 | 148
9 | COc1ccc(S(=O)(=O)N2Cc3ccccc3N(Cc3ccccc3)CC2C(=O)NO)cc1 (centres unmarked) [Example 67, 1-Benzyl-4-(4-methoxybenzenesulfonyl)-2,3,4,5-tetrahydro-1H-[1,4]benzodiazepine-3-carboxylic acid, Hydroxylamide] | 73.9 | 50.8 | 1320 | 551 ± 29
10 | COc1ccc(S(=O)(=O)N2Cc3ccccc3N(C(=O)c3ccc(OC)cc3OC)CC2C(=O)NO)cc1 (centres unmarked) [Example 71, 1-(2,4-Dimethoxybenzoyl)-4-(4-methoxybenzenesulfonyl)-2,3,4,5-tetrahydro-1H-[1,4]benzodiazepine-3-carboxylic acid, Hydroxyamide] | 1.3 | 2.4 | 41.3 | 136
11 | COc1ccc(S(=O)(=O)N2Cc3ccccc3N(C(=O)CN3CCN(C)CC3)CC2C(=O)NO)cc1 (centres unmarked) [Example 72, 4-(4-Methoxybenzenesulfonyl)-1-[2-(4-methylpiperazin-1-yl)acetyl]-2,3,4,5-tetrahydro-1H-[1,4]benzodiazepine-3-carboxylic acid, Hydroxyamide] | 317 | 187 | 4980 | 808
